Assays:
[1] = test system: M9-ENL1 cells; experiment: Chemical screen, MTS assay, M9-ENL1 cells; format: cell-based, human; details: 10 μM, 48 hours
Excerpt: To identify compounds active against leukemia stem cells, a library of drugs (n=312) with well-characterized pharmacokinetics and toxicology and a wide therapeutic window was compiled. This library was then screened to identify agents that reduced the viability of TEX and M9-ENL1 cells. TEX and M9-ENL1 cells were derived from lineage-depleted human cord blood cells (Lin-CB) transduced with TLS-ERG or MLL-ENL oncogenes, respectively, and, as shown previously, display properties of stem cells including hierarchal differentiation and marrow repopulation^14, 15. In this screen, TEX and M9-ENL1 cells were treated with aliquots of the compounds. After incubation, cell growth and viability was measured by the MTS assay. From this screen, tigecycline was identified.
TEX, and M9-ENL-1 cells were seeded into 96-well polystyrene tissue culture plates (Corning). […] 72 (TEX) and 48 (M9-ENL-1) hours after incubation, cell growth and viability was measured by MTS assay. […]
Cell growth and viability was assessed by the MTS assay (Promega, Madison, Wis.) according to the manufacturer's instructions. Apoptosis and cell death was measured by Annexin V-fluroscein isothiocyanate (FITC; Biovision Research Products, Mountain View, Calif.), propidium iodide staining and flow cytometry according to the manufacturer's instructions and as previously described^30. […]

[2] = intravenous doses of 300 mg; cited from earlier work
[3] = test system: XIAP, grp78; experiment: Immunoblotting of cytosolic-ribosome translated proteins; format: cell-based, human; details: TEX, OCI-AML2, primary AML cells
Description: FIG. 4. […] (A) Cells from TEX, OCI-AML2 and two primary AML patients were treated with increasing concentrations (2.5 μM and 5 μM) of tigecycline for 36 and 48 hours of tigecycline. Total proteins were extracted and analyzed by western blotting for Cox-1, Cox-2, Cox-4, grp78, XIAP, actin and tubulin. (B) TEX and AML patient cells were treated with increasing concentrations (2.5 μM and 5 μM) of tigecycline. Cox-1, Cox-2, and Cox-4 mRNA expression relative 18S was determined by quantitative RT-PCR. Data is shown as mean±SD. (C) TEX cells were treated with increasing concentrations of tigecycline and chloramphenicol (CAP) for 72 hours. Complex I, II and IV enzyme activity relative to citrate synthase activity was determined as described in materials and methods. (D) Cells from TEX, primary AML patients, and normal donors were treated with increasing concentrations of tigecycline. Mitochondrial membrane potential (ΔΨ) was determined by staining cells with JC-1 dye, and flow cytometry analysis (Red/Green ratio). Reactive oxygen species generation (ROS) was determined by staining with h2-DCFDA and Dihydroethidium (DHE).
Total cell lysates were prepared from cells as described previously^32. […] Protein concentrations were measured by the DC Protein assay. […]

[4] = test system: normal hematopoietic cells; experiment: Methylcellulose colony formation assay, normal hematopoietic cells; format: cell-based, human; details: 5 μM, normal hematopoietic cells n=5, 14 days
Description: FIG. 2. Tigecycline induces cell death and inhibits clonogenic growth in primary AML cells preferential over normal hematopoietic cells. Mononuclear cells from peripheral blood of leukemia patients (blast count>80%) and normal G-CSF expanded donors was treated with increasing concentrations of tigecycline for 48 hours. Cell viability was measured by Annexin-PI flow cytometry staining. Cell viability is expressed as a mean percentage plus or minus SD (n=3) relative to DMSO-treated cells. Mononuclear cells from primary AML patient samples (A, B) and normal peripheral blood cells (C) were plated in methylcelluose with 5 μM of Tigecycline. (D) Colony forming units were counted at 7 days (AML) and 14 days (Normal) post plating. […]
To assess clonogenic growth, primary AML cells (1.0×10^5/mL) or granulocyte colony-stimulating factor (G-CSF) mobilized PBSCs (1.0×10^5/mL) were plated in duplicate with increasing concentrations of tigecycline in MethoCult GF H4434 medium (StemCell Technologies, Vancouver, BC) containing 1% methycellulose in IMDM, 30% FCS, 1% bovine serum albumin, 3 U/mL of recombinant human erythropoietin, 10^−4 M of 2-mercaptoethanol, 2 mM of L-glutamine, 50 ng/mL of recombinant human stem cell factor, 10 ng/mL of GM-CSF, and 10 ng/mL of rh IL-3). Seven days (AML samples) or 14 days (normal PBCS) after plating, the number of colonies was counted as previously described^31.

SMILES: CN(C)c1cc(NC(=O)CNC(C)(C)C)c(O)c2c1C[C@H]1C[C@H]3[C@H](N(C)C)C(O)=C(C(N)=O)C(=O)[C@@]3(O)C(O)=C1C2=O [tigecycline]
- cell growth and viability in screen [1]: cell growth inhibitor
- tolerability [2]: well tolerated save for mild nausea
- expression of XIAP or grp78 [3]: did not alter
- reduction of clonogenic growth [4]: 34±5%
